Assay [1] deals with Mus musculus. Put plainly: Antiobesity activity in diet-induced obese C57Bl/6 mouse assessed as reduction in fasting blood glucose at 150 mg/kg/day, po for 4 weeks administered with high-fat diet (reference value: 5.0 +/- 1.30 mM). The format is functional.
The subject of assay [2] is Mus musculus. Put plainly: Antiobesity activity in diet-induced obese C57Bl/6 mouse assessed as reduction in body weight at 150 mg/kg/day, po for 4 weeks administered with high-fat diet. The format is functional. Also noted: scale not given: the % may be the effect or the level left.
Assay [3] relates to Mus musculus. In words: Increase in glucose tolerance in diet-induced obese C57Bl/6 mouse assessed as induction of insulin secretion at 150 mg/kg/day, po for 4 weeks by oral glucose tolerance test. The format is functional, organism-based.
In assay [4] the test system is Mus musculus. In words: Antiobesity activity in diet-induced obese C57Bl/6 mouse assessed as reduction in FFA level at 150 mg/kg/day, po for 4 weeks administered with high-fat diet (reference value: 25.07 +/- 3.49 ng/L). Type of assay: functional.
Assay [5] has as its system Mus musculus. Put plainly: Antiobesity activity in diet-induced obese C57Bl/6 mouse assessed as reduction in LDL level at 150 mg/kg/day, po for 4 weeks administered with high-fat diet (reference value: 0.14 +/- 0.07 mM). Type of assay: functional.
In assay [6] the test system is Mus musculus. Put plainly: Antiobesity activity in diet-induced obese C57Bl/6 mouse assessed as loss of epididymal fat mass at 150 mg/kg/day, po for 4 weeks administered with high-fat diet. Type of assay: functional.
Assay [7] concerns Mus musculus. Put plainly: Antiobesity activity in diet-induced obese C57Bl/6 mouse assessed as loss of liver weight at 150 mg/kg/day, po for 4 weeks administered with high-fat diet. The format is functional.
Assay [8] deals with Mus musculus. Put plainly: Antiobesity activity in diet-induced obese C57Bl/6 mouse assessed as reduction in triglyceride level at 150 mg/kg/day, po for 4 weeks administered with high-fat diet (reference value: 0.93 +/- 0.09 mM). The format is functional.
Assay [9] relates to Mus musculus. Put plainly: Antiobesity activity in diet-induced obese C57Bl/6 mouse assessed as change in insulin level at 150 mg/kg/day, po for 4 weeks administered with high-fat diet (reference value: 4.31 +/- .82 mU). Type of assay: functional.
In assay [10] the test system is Mus musculus. Put plainly: Decrease in insulin resistance in diet-induced obese C57Bl/6 mouse at 150 mg/kg/day, po for 4 weeks by insulin tolerance test. Type of assay: functional, organism-based.
The subject of assay [11] is Mus musculus. In words: Antiobesity activity in diet-induced obese C57Bl/6 mouse assessed as increase in HDL level at 150 mg/kg/day, po for 4 weeks administered with high-fat diet (reference value: 1.02 +/- 0.13 mM). The format is functional.
The test system of assay [12] is Mus musculus. In words: Antiobesity activity in diet-induced obese C57Bl/6 mouse assessed as change in insulin level at 150 mg/kg/day, po for 4 weeks administered with high-fat diet (reference value: 11.85 +/- 2.6 mU). Type of assay: functional.
Assay [13] has as its system Mus musculus. In words: Antiobesity activity in diet-induced obese C57Bl/6 mouse assessed as reduction in HOMA-IR value at 150 mg/kg/day, po for 4 weeks administered with high-fat diet (reference value: 0.94 +/- 0.23 no_unit). Type of assay: functional.
In assay [14] the test system is Mus musculus. In words: Antiobesity activity in diet-induced obese C57Bl/6 mouse assessed as reduction in LDL level at 150 mg/kg/day, po for 4 weeks administered with high-fat diet (reference value: 0.13 +/- 0.02 mM). The format is functional.
Assay [15] concerns Mus musculus. In words: Antiobesity activity in diet-induced obese C57Bl/6 mouse assessed as reduction in fasting blood glucose at 150 mg/kg/day, po for 4 weeks administered with high-fat diet (reference value: 4.88 +/- 0.75 mM). The format is functional.
The test system of assay [16] is Mus musculus. In words: Antiobesity activity in diet-induced obese C57Bl/6 mouse assessed as reduction in triglyceride level at 150 mg/kg/day, po for 4 weeks administered with high-fat diet (reference value: 0.96 +/- 0.14 mM). Type of assay: functional.
For assay [17], the system named is Mus musculus. In words: Antiobesity activity in diet-induced obese C57Bl/6 mouse assessed as increase in HDL level at 150 mg/kg/day, po for 4 weeks administered with high-fat diet (reference value: 0.60 +/- 0.17 mM). The format is functional.
For assay [18], the system named is Mus musculus. Put plainly: Antiobesity activity in diet-induced obese C57Bl/6 mouse assessed as reduction in hepatic triglyceride level at 150 mg/kg/day, po for 4 weeks administered with high-fat diet by Oil Red O staining-based histological method. Type of assay: functional. Also noted: scale not given: the % may be the effect or the level left.
Assay [19] has as its system Mus musculus. Put plainly: Antiobesity activity in diet-induced obese C57Bl/6 mouse assessed as reduction in FFA level at 150 mg/kg/day, po for 4 weeks administered with high-fat diet (reference value: 19.55 +/- 1.57 ng/L). The format is functional.

Active and inactive are the calls of the source. No cut-off for these calls is given here.

With `CN(C)C(=N)NC(=N)N` [METFORMIN], the Activity in the assay with Mus musculus [1] is on record as 5.32 mM; with Mus musculus [2], 19.08%; in the assay with Mus musculus [4], 26.05 ng/L; in the assay with Mus musculus [5], 0.12 mM; in the assay on Mus musculus [6], 22.94%; in the assay with Mus musculus [7], 23.2%. Further, the Activity was found to be 0.92 mM in the assay on Mus musculus [8]; 5.48 mU with Mus musculus [9]; 1.38 mM in the assay with Mus musculus [11]; 8.1 mU with Mus musculus [12]; 1.73 in the assay on Mus musculus [13]; 0.17 mM in the assay on Mus musculus [14]. For the same compound, the Activity in the assay on Mus musculus [15] came out at 7.57 mM; in the assay on Mus musculus [16] it was 1.07 mM; with Mus musculus [17] it was 0.82 mM; with Mus musculus [18], 10.73%; in the assay with Mus musculus [19] it was 21.56 ng/L. Besides, the result with Mus musculus [3] and with Mus musculus [10] was Active.
